Results taken from publication PMC8934631, “Transcriptomic and genomic studies classify NKL54 as a histone deacetylase inhibitor with indirect influence on MEF2-dependent transcription” (Nucleic Acids Research, 2022).

Assays:
[1] = target: T1, HDAC1 (Homo sapiens, UniProt Q13547); assay: fluorogenic deacetylase assay, trypsin-coupled AMC release; type: biochemical
T1 construct: purchased from BPS Bioscience

[2] = target: HDAC4 (Homo sapiens, UniProt P56524); assay: as above; type: biochemical
[3] = target: T2, HDAC3 (Homo sapiens, UniProt O15379); assay: as above; type: biochemical
T2 construct: purchased from BPS Bioscience; with Nuclear receptor corepressor 2
T2 sequence (O15379 whole entry): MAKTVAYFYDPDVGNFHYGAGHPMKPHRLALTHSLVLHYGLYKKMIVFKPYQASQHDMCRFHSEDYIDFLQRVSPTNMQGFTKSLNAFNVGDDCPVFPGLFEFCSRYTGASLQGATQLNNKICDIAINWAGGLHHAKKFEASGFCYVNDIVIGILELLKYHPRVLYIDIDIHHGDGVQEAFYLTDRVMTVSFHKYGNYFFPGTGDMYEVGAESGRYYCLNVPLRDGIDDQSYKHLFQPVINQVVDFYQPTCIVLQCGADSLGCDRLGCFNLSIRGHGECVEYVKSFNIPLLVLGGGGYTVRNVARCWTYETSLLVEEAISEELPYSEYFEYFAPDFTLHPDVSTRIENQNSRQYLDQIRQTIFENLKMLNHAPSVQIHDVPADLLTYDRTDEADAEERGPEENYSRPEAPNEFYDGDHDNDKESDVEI

[4] = target: T3, HDAC2 (Homo sapiens, UniProt Q92769); assay: as above; type: biochemical
T3 construct: purchased from BPS Bioscience
T3 sequence (Q92769 whole entry): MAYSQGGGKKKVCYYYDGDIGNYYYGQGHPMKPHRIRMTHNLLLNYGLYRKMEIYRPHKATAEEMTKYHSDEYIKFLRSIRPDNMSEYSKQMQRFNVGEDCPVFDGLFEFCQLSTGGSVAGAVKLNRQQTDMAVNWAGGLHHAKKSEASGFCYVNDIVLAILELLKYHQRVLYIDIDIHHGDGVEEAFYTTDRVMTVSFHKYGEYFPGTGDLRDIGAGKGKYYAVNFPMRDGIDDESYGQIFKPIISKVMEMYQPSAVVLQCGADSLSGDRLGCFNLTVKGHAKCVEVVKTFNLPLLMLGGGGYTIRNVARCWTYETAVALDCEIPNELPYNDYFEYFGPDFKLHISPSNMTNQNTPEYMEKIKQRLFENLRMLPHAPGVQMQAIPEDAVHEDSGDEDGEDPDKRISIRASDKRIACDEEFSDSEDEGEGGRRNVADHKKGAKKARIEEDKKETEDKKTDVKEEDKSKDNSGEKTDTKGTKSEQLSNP

[5] = target: T4, HDAC8 (Homo sapiens, UniProt Q9BY41); assay: biochemical; design: in vitro inhibition of purified HDAC isozymes, dose response
T4 sequence (Q9BY41 1-377): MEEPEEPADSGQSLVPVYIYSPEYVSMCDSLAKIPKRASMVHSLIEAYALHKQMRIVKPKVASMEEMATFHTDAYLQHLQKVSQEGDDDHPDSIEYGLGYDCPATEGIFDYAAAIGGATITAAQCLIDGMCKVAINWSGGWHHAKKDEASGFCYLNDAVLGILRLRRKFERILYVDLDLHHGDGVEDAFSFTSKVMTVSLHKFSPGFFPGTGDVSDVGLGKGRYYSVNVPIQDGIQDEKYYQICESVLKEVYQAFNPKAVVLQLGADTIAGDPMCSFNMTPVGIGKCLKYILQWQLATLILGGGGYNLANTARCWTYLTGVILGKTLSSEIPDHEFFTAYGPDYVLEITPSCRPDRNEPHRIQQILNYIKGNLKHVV
Protocol: (§1) To confirm the ability of NKL54, MC2984 and MC2985 to act as epigenetic drugs, we examined the levels of histone H3 lysine 9 acetylation (H3K9ac) by immunoblot. SAHA triggered an increase in H3K9 acetylation within 15 min of treatment (Figure 1G). […] The increase in H3K9ac in response to MC2985 treatment was very small, almost undetectable. […] Overall, the modulation of H3K9ac and of H3K27ac levels in response to the different compounds confirms the inhibitory potency observed with the KDAC assay in vivo. Finally, we compared the in vitro inhibitory activity of SAHA and of PAOA derivatives against different purified HDACs (NKL54 was chosen as an example). The inhibitory activity of NKL54 was specific to HDAC1/2/3 (Figure 1H). […] The Tanimoto coefficient is reported for all the compounds versus the reference BML-210. *Energy calculated on the re-docked ligand extracted from the 3MU6 complex available from PDB. **Tanimoto similarity index calculated with radius 2 circular Morgan fingerprints ([73]) in a python script ([74]) using the RDKit library ([75]). […] Cell death was scored after 48 h from treatments. […] Cell death was scored after 48 h from treatments. Data are from 3 independent experiments, + S.D. (F) Lys-deacetylase activity as measured from SK-UT-1 cells treated with increasing concentrations of the indicated compounds [1, 5, 10 μM]. […]

[6] = target: T5, HDAC6 (Homo sapiens, UniProt Q9UBN7); assay: biochemical; design: in vitro inhibition of purified HDAC isozymes, dose response
T5 sequence (Q9UBN7 1-1215): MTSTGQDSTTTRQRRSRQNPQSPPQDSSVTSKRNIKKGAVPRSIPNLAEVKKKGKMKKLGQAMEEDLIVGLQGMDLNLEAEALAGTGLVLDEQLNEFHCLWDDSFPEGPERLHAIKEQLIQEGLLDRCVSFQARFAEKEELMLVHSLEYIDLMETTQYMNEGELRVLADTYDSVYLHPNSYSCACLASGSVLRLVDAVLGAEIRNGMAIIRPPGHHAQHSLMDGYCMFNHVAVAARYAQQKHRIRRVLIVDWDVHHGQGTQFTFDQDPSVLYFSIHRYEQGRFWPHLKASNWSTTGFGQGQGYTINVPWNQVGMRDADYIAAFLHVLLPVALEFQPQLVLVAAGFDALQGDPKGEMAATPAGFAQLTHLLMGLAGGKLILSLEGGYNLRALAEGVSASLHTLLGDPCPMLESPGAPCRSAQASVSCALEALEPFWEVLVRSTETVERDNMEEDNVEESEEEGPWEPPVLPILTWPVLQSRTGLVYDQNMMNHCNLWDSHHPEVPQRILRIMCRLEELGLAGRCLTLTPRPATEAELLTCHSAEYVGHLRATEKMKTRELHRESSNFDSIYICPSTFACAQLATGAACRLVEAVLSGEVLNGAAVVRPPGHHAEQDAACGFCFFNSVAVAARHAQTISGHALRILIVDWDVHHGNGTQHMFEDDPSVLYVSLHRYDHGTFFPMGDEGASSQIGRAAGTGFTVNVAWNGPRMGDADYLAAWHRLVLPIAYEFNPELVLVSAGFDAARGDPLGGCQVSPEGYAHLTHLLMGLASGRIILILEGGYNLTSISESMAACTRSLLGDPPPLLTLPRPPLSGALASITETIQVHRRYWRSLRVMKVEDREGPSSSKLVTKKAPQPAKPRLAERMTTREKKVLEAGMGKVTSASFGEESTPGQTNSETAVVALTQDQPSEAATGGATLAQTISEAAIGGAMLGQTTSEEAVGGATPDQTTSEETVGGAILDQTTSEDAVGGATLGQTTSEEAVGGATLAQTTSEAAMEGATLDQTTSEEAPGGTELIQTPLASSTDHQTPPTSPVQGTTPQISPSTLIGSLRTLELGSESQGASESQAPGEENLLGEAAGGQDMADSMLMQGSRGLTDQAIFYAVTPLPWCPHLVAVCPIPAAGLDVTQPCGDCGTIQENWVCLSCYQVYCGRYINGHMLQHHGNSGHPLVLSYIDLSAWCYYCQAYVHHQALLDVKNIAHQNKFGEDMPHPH
Protocol: as §1

T1 sequence (Q13547 whole entry): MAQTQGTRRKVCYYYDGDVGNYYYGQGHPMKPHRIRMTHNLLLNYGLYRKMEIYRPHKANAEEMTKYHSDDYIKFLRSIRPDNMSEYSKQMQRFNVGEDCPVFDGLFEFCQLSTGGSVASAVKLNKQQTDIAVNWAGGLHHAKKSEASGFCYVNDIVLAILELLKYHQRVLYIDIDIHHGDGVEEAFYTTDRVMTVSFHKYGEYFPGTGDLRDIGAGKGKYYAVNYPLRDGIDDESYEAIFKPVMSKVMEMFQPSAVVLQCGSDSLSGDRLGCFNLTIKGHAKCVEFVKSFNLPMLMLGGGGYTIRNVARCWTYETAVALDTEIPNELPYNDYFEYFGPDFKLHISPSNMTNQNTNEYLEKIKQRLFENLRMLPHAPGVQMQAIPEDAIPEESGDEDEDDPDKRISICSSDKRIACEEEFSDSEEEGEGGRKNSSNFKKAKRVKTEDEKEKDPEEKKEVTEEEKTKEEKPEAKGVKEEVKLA
Chain of HDAC4 (P56524 648-1057 limits assumed): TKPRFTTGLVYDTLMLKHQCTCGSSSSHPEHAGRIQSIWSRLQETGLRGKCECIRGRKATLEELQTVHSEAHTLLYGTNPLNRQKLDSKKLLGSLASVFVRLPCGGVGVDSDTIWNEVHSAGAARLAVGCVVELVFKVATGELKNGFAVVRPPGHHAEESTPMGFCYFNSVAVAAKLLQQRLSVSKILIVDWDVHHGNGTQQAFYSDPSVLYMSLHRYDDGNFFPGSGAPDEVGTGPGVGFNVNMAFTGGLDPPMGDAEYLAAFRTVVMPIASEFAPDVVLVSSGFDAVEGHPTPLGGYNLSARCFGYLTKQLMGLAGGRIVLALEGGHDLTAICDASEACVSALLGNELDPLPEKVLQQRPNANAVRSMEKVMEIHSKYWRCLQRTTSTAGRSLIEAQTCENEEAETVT

IC50 [1]: 84 ± 4 nM
IC50 [2]: 35 µM
IC50 [3]: 47 ± 2 nM
IC50 [4]: 176 ± 5 nM
IC50 [5]: > 50 µM
IC50 [6]: > 50 µM
Structure (SMILES): Nc1ccccc1NC(=O)CCCCCC(=O)Nc1cccc(C(F)(F)F)c1 [NKL54, N-(2-aminophenyl)-N'-[3-(trifluoromethyl)phenyl]heptanediamide]
